The record followed here is patent EP0652009A1, “Identification and use of protease inhibitors” (ELI LILLY AND COMPANY, priority 1993, dated 1995).

This assay concerns the target Cathepsin D (Homo sapiens, UniProt P07339). Put plainly: Assay 3: cathepsin D inhibition activity (non-cellular assay, chromogenic substrate). The conditions noted are these: cathepsin D from human placental tissue; for Ki: chromogenic substrate, pH 3.7, 37°C; for inhibition at 4 µM: read-out: % inhibition at 4µ M. More on the design: Frozen human placental tissue was thawed and homogenized; from tissue; host or cells: human placenta. In kind it is biochemical. The method, then: A third non-cellular assay for determining in vitro aspartyl protease inhibitory activity is generally described in Jupp, R.A. et al., (1990) Biochem. J., 265:871-878 and Rao et al., J. Med. Chem. (1993), in press. The assay is carried out by incubating a test compound with a suitable aspartyl protease, such as cathepsin D, in the presence of a chromogenic substrate. The inhibition constant, Ki, value may then be determined by quantifying the competitive inhibition of the hydrolysis of the chromogenic substrate. A variety of chromogenic substrates that are useful for assaying aspartyl protease activity are discussed in Dunn, et al., (1986) Biochem. J., 237:899-906. A preferred chromogenic substrate for a cathepsin D assay is disclosed in Scarborough, P.E. et al., Protein Science, (1993), 2:264-276.
Concentrations of substrate solutions and cleavage products may be verified using amino acid analysis. The enzyme preparations may be titrated with a tightly binding inhibitor to quantitate the active concentration of the enzyme. Enzyme concentrations are typically in the range of from 1-6 nM. Stock solutions of the test compound are prepared at concentrations ranging from 1.0 to 5.0 mg/mL, and then 50-100 µL portions of these stock solutions may be further diluted to a concentration in the range of 5 to 300 µM for rate determinations.
[…] Then, the test compounds are assayed over a concentration range of, for example, 5 to 300 µM for rate determinations.
A decrease in absorbance in the range of 284-324 nm may be monitored using a spectrophotometer. Absorbance readings are typically taken at various timepoints. The initial velocities are then plotted versus the initial substrate concentration. […] Estimates of Ki may then be determined using the Dixon construction. Dixon, M., (1953) Biochem J., 55:170-171.
If the ratio of the total active enzyme concentration to the estimated Ki value ([E]t/Ki) is less than 0.2, then the precise Ki value may be computed by using a non-linear curve fitting program based on the equation: v= Vmax [S]/[S] + Km (1 + [I]/Ki ) [formula] where v is the initial rate, [S] is the initial substrate concentration, [I] is the inhibitor concentration and Km and Ki are defined above. […] P.J.F., (1972) Biochem J., 127:321-333. This Assay is exemplfied in Assay 3.
The homogenate was centrifuged at 10,000 rpm for 30 minutes in a Sorvall GSA rotor. The supernatant was adjusted to pH 3.7 using 5.7N HCl and then sodium acetate was added to a concentration of 0.1M. The resultant mixture was incubated for 30 minutes at 0°C, resulting in the formation of a precipitate. This precipitate was removed by centrifugation (30 minutes, 10,000 rpm). The acidic supernatent was applied to a chromatography column (pepstatinyl agarose equilibrated with 0.1M sodium acetate, pH 3.5, 0.1% Brij 35, and 1M NaCl), washed until the OD₂₈₀ of the effluent returned to baseline, and then eluted with 50mM Tris-HCl, pH 8.6, 0.1% Brij 35, and 1M NaCl. The eluent was dialyzed against 10mM sodium phosphate, pH 7.0, 0.1% Brij 35, and 0.1M NaCl, and then applied to a 1 mL DEAE-Sephacel column equilibrated with the same buffer. Cathepsin D was recovered in the breakthrough fraction.
The enzyme mixture (125 µL buffer (0.1M sodium formate at pH 3.7), 1 µL of a 1mM solution of test compound, 4 µL of DMSO, enzyme and water to provide a total volume of 230 µL) was vortexed and prewarmed for four minutes before the addition of the chromogenic substrate. After warming, the enzyme mixture was added to 20 µL of a […] dilution of substrate solution. A control reaction mixture was similarly prepared without the addition of the test compound. The percent of inhibition of the initial rate of reaction in the presence of a particular concentration of test compound (i.e. 4 µM) may be determined for the test compound by monitoring the reaction mixture in parallel to the control reaction. […]

The mark [1] stands for this setting: 4 µM test compound, inhibition of initial rate relative to control.

Chain of Cathepsin D (P07339 169-412 limits assumed): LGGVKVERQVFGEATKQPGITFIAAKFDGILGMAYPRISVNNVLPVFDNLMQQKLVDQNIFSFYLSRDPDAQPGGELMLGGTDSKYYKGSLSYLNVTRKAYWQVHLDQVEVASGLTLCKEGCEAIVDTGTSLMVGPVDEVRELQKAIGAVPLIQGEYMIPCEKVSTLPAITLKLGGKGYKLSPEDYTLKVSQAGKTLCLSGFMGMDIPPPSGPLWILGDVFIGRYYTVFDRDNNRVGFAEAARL
Chain of Cathepsin D (P07339 65-162 limits assumed): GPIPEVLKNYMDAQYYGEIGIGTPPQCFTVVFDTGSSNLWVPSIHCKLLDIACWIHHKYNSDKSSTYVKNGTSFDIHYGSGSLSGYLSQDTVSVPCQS

Take `CC(C)(C)NC(=O)c1ccccc1CC(O)C(Cc1ccccc1)NC(=O)C(CC(N)=O)NC(=O)C(Cc1cccc2ccccc12)NC(=O)OC(C)(C)C` (stereo not drawn) [Example 26, [2R-(2R*,3S*,6S*,9S*)]-N-t-Butyl-2-[2-hydroxy-3-phenylmethyl-4,7-diaza-5,8-dioxo-6-(2-amino-2-oxoethyl)-9-N(t-butoxycarbonyl)amino-10-naphth-1-yl]decyl benzamide]: the Ki is 2300 ± 410 nM.
Take `CC(C)(C)NC(=O)c1ccccc1C[C@@H](O)[C@H](Cc1ccccc1)NC(=O)[C@H](Cc1c[nH]cn1)NC(=O)[C@H](Cc1cccc2ccccc12)NC(=O)OC(C)(C)C` [Example 27, [2R-(2R*,3S*,6S*,9S*)]-N-t-Butyl-2-[2-hydroxy-3-phenylmethyl-4,7-diaza-5,8-dioxo-6-(imidazol-4-ylmethyl)-9-N(t-butoxycarbonyl)amino-10-naphth-1-yl]decyl benzamide]: the inhibition at 4 µM under setting [1] came to 40%.
`CC(C)(C)NC(=O)c1ccccc1C[C@@H](O)[C@H](Cc1ccccc1)NC(=O)[C@H](Cc1cnc[nH]1)NC(=O)[C@@H](Cc1cccc2ccccc12)NC(=O)OC(C)(C)C` [Example 28, [2R-(2R*,3S*,6S*,9R*)]-N-t-Butyl-2-[2-hydroxy-3-phenylmethyl-4,7-diaza-5,8-dioxo-6-(imidazol-4-ylmethyl)-9-N(t-butoxycarbonyl)amino-10-naphth-1-yl]decyl benzamide]: the inhibition at 4 µM under setting [1] is 6%.
Still for that read-out and setting: then `CC(C)(C)NC(=O)c1ccccc1C[C@@H](O)[C@H](Cc1ccccc1)NC(=O)[C@@H](CC(=O)O)NS(C)(=O)=O` [Example 31, [2R-(2R*,3S*,6R*)]-N-t-Butyl-2-[2-hydroxy-3-phenylmethyl-4-aza-5-oxo-6-N(methylsulfonyl)amino-7-carboxy]heptyl benzamide], with 43%; and `CC(C)(C)NC(=O)c1ccccc1C[C@@H](O)[C@H](Cc1ccccc1)NC(=O)[C@H](CC(N)=O)NS(=O)(=O)CCc1cccc2ccccc12` [Example 32, [2R-(2R*,3S*,6S*)]-N-t-Butyl-2-[2-hydroxy-3-phenylmethyl-4-aza-5-oxo-6-N(naphth-1-ylethylsulfonyl)amino-7-carbamoyl]heptyl benzamide], with 12%.
As to `CC(C)C(NC(=O)OCc1ccccc1)C(=O)NC(Cc1ccccc1)C(O)C(O)C(Cc1ccccc1)NC(=O)C(NC(=O)OCc1ccccc1)C(C)C` [Example 33, 1,6-Diphenyl-2(S),5(S)-di[N-[2(S)-N(benzyloxycarbonyl)amino-3-methyl-butanoyl]amino]-3,4-dihydroxyhexane], the Ki is 23 ± 3 nM.
Same read-out and setting: the result for `CC(C)C(NC(=O)OCc1ccc2ccccc2n1)C(=O)NC(Cc1ccccc1)C(O)C(O)C(Cc1ccccc1)NC(=O)C(NC(=O)OCc1ccc2ccccc2n1)C(C)C` [Example 34, 1,6-Diphenyl-2(S),5(S)-di[N-[2(S)-N(quinolin-2-ylmethoxycarbonyl)amino-3-methylbutanoyl]amino]-3,4-dihydroxyhexane] reads 18 nM; that for `CC(C)C(NC(=O)OCc1ccccn1)C(=O)NC(Cc1ccccc1)C(O)C(O)C(Cc1ccccc1)NC(=O)C(NC(=O)OCc1ccccn1)C(C)C` [Example 35, 1,6-Diphenyl-2(S),5(S)-di[N-[2(S)-N(pyrid-2-ylmethoxycarbonyl)amino-3-methylbutanoyl]amino]-3,4-dihydroxyhexane], 86 nM.
Take “[1S-(1R*,4R*,5S*)]-N-(1-(2-Amino-2-oxoethyl)-2-oxo-3-aza-4-phenylmethyl-5-hydroxy-6-(2-(1-t-butylamino-1- oxomethyl)phenyl)hexyl)-2-(6,7,8,9-tetrahydronaphthyl) carboxamide [Example 11]”: under setting [1], the “% inhibition at 4µ M” value was 32%.
